Some test systems named below: A549; ACHN; BT-549; CAKI-1; HL-60; HT-29; K562; M14; MDA-MB-231; MOLT-4; NCI-H226; NCI-H522; OVCAR-4; OVCAR-5; SF-268; SK-MEL-5; SK-OV-3; T47D; TK-10; U-251.
Experiment in all cases: NCI tumour cell line growth inhibition, 48 h

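Tested at 5 concentrations; 48 h exposure; 96-well plates; endpoints linearly interpolated, else capped at highest concentration. At the GI50, growth is halved.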 Active and inactive are the calls of the source. Cut-off read from the data, not from the text of the source: active = GI50 up to about 1.1 µM and inactive = higher.

Take `CCC(=O)C(CCN1CCC2(CCCc3ccccc32)CC1)(c1ccccc1)c1ccccc1`: the GI50 in the test on A549 is 3.63 µM (inactive); in the test on ACHN, 2.85 µM (inactive); in the test on BT-549, 0.685 µM (active); in the test with CAKI-1 it was 3.44 µM (inactive); with HL-60 it was 1.57 µM (inactive); in the test on HT-29 it was 0.993 µM (active). Besides, the GI50 is 1.8 µM (inactive) with K562; 1.87 µM (inactive) in the test with M14; 2.51 µM (inactive) in the test with MDA-MB-231; 1.41 µM (inactive) in the test on MOLT-4; 2.05 µM (inactive) with NCI-H226; 1.75 µM (inactive) in the test on NCI-H522. The GI50 in the test on OVCAR-4 is 3.52 µM (inactive); in the test with OVCAR-5 it was 3.74 µM (inactive); in the test with SF-268, 5.92 µM (inactive); in the test with SK-MEL-5, 1.49 µM (inactive); in the test with SK-OV-3, 3.19 µM (inactive); in the test with T47D, 3.29 µM (inactive). The GI50 in the test on TK-10 is 3.77 µM (inactive); with U-251, 2.62 µM (inactive).

For `CCOC(=O)c1nc2cc(C(F)(F)F)ccc2nc1Nc1ccc(C(=O)OC)s1`, the GI50 in the test with A549 is 48.6 µM (inactive); with ACHN, 37.8 µM (inactive); in the test with BT-549, 25.7 µM (inactive); in the test with CAKI-1, 31.3 µM (inactive); with HL-60, 38 µM (inactive); in the test on HT-29, 37.1 µM (inactive). The GI50 with K562 was 31.6 µM (inactive); with M14, 37.6 µM (inactive); with MDA-MB-231, 23.6 µM (inactive); in the test with MOLT-4 it was 27.1 µM (inactive); with NCI-H226 it was 27 µM (inactive); in the test with NCI-H522 it was 19.7 µM (inactive). The GI50 with OVCAR-4 was 31 µM (inactive); in the test with OVCAR-5, > 100 µM (inactive); with SF-268 it was 44.9 µM (inactive); with SK-MEL-5, 40.5 µM (inactive); in the test with SK-OV-3 it was 47.3 µM (inactive); in the test with T47D, 25.7 µM (inactive). In addition, the GI50 in the test on TK-10 was 42.8 µM (inactive); in the test on U-251, 29.6 µM (inactive).

In the case of `O=C(c1ccccc1)c1ccc2[nH]c(-c3c(Cl)c(Cl)c(Cl)c(Cl)c3C(=O)N/N=C/c3ccccc3)nc2c1`, the GI50 was 27.7 µM (inactive) with A549; 16.7 µM (inactive) with ACHN; 28.5 µM (inactive) with BT-549; 34.1 µM (inactive) in the test on CAKI-1; 18.6 µM (inactive) in the test on HL-60; 30.8 µM (inactive) in the test on HT-29. For the same molecule, the GI50 was 27.7 µM (inactive) with K562; 31.2 µM (inactive) in the test with M14; 19.2 µM (inactive) in the test on MDA-MB-231; 11.2 µM (inactive) in the test on MOLT-4; 19.9 µM (inactive) with NCI-H226; 18.1 µM (inactive) with NCI-H522. Besides, the GI50 in the test on OVCAR-4 is 16.4 µM (inactive); with OVCAR-5 it was 36.9 µM (inactive); with SF-268 it was 27.5 µM (inactive); with SK-MEL-5, 14.5 µM (inactive); with SK-OV-3 it was 35.7 µM (inactive); with T47D it was 14.7 µM (inactive). The results for the GI50 with TK-10 and in the test on U-251 were 38.8 µM (inactive) and 35.8 µM (inactive), respectively.

With `C=C(C)C(CC=C(C)C)Cc1c(O)cc(OC)c2c1OC(c1ccc(O)cc1O)C(O)C2=O` (stereo not given), the GI50 in the test on A549 was 19.5 µM (inactive); in the test on ACHN, 20.4 µM (inactive); in the test on BT-549, 14.9 µM (inactive); in the test with CAKI-1, 13.6 µM (inactive); with HL-60, > 100 µM (inactive); in the test on HT-29 it was 20.7 µM (inactive). Further, the GI50 in the test on K562 was > 100 µM (inactive); with M14, 22 µM (inactive); with MDA-MB-231, 18.6 µM (inactive); in the test with MOLT-4, > 100 µM (inactive); in the test on NCI-H226, 18.3 µM (inactive); with NCI-H522, 18.9 µM (inactive). In addition, the GI50 with OVCAR-4 is 16.3 µM (inactive); with OVCAR-5, 17.7 µM (inactive); with SF-268, 18.6 µM (inactive); with SK-MEL-5 it was 18.5 µM (inactive); in the test with SK-OV-3, 16.8 µM (inactive); in the test with T47D, 13.8 µM (inactive). Further, the figures for the GI50 in the test on TK-10 and with U-251 were 21.8 µM (inactive) and 14.5 µM (inactive), respectively.

Turning to `O=S(=O)(/N=C(\NO)Nc1ccc(Cl)cc1)C1CC=C(c2ccon2)S1` (stereo not given), the GI50 was 32.1 µM (inactive) in the test with A549; 13 µM (inactive) in the test on ACHN; 12.3 µM (inactive) in the test on BT-549; 2.39 µM (inactive) with CAKI-1; 1.18 µM (inactive) in the test with HL-60; 42.7 µM (inactive) in the test on HT-29. The GI50 in the test with K562 was 7.1 µM (inactive); with M14, 29 µM (inactive); with MDA-MB-231, 18.4 µM (inactive); with MOLT-4, 3.34 µM (inactive); in the test with NCI-H226, 13.4 µM (inactive); with NCI-H522 it was 1.13 µM (inactive). Moreover, the GI50 in the test with OVCAR-4 was 3.52 µM (inactive); with OVCAR-5 it was > 66.2 µM (inactive); in the test on SF-268 it was 14.7 µM (inactive); in the test on SK-MEL-5, 20.4 µM (inactive); with SK-OV-3, > 100 µM (inactive); in the test with T47D it was 12.5 µM (inactive). The results for the GI50 with TK-10 and with U-251 were 14.4 µM (inactive) and 15.8 µM (inactive), respectively.

As to `NC(=O)C1=CC2C3C=CC2(O)C(=O)OC3O1` (stereo not given), the GI50 in the test with A549 is 34.7 µM (inactive); with ACHN it was 3.44 µM (inactive); in the test on BT-549, 4.06 µM (inactive); with CAKI-1 it was 6.07 µM (inactive); with HL-60, 1.5 µM (inactive); in the test on HT-29, 2.92 µM (inactive). Also, the GI50 in the test on K562 was 7.29 µM (inactive); with M14, 2.97 µM (inactive); in the test with MDA-MB-231 it was 7.64 µM (inactive); in the test on MOLT-4, 1.88 µM (inactive); with NCI-H226, 2.31 µM (inactive); in the test on NCI-H522, 1.83 µM (inactive). In addition, the GI50 was 4.33 µM (inactive) in the test on OVCAR-4; 22.8 µM (inactive) with OVCAR-5; 3.73 µM (inactive) in the test on SF-268; 2.38 µM (inactive) in the test on SK-MEL-5; 13.5 µM (inactive) in the test on SK-OV-3; 3.36 µM (inactive) with T47D. In addition, the GI50 in the test with TK-10 was 4.07 µM (inactive); with U-251 it was 8.59 µM (inactive).

The values are drawn from ChEMBL document CHEMBL1201862, “PubChem BioAssay data set” (2004).
